In patent US20060142349A1, “Methods of modulating the activities of alpha-7 nicotinic acetylcholine receptor” (Pfizer Inc, priority 2004, published 2006):
Entries after “also recorded” stand apart in the source; their conditions may differ. Read-outs that look alike come from different tables or passages of the source.

Assays:
[1] = target: T1, α7 nicotinic acetylcholine receptor (Rattus norvegicus, UniProt Q05941); assay: Inhibition of desensitization of α7 nicotinic acetylcholine receptor by acetylcholine, whole cell patch clamp; type: cell-based; settings: rat hippocampal neurons, continuous exposure to compound, acetylcholine 1 mM applied for 1 second once every minute
T1 construct: Currents were recorded from individual neurons using the whole; endogenous in cells; host or cells: primary hippocampal neurons from postnatal day 3 Sprague-Dawley rats, cultured 1-2 weeks
T1 sequence (Q05941 23-502): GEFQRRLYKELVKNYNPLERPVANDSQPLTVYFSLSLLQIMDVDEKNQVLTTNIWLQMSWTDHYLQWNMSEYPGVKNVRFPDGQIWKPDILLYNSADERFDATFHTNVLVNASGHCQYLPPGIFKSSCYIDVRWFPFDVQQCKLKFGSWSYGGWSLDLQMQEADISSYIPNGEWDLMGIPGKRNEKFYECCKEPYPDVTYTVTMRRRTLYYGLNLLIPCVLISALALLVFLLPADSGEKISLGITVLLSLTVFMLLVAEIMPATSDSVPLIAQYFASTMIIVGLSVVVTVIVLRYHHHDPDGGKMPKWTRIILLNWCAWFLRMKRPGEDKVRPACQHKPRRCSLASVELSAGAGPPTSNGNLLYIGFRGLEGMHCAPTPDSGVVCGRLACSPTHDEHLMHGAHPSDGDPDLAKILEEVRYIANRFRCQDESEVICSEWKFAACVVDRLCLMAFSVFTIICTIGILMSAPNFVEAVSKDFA

[2] = target: T1, α7 nicotinic acetylcholine receptor; assay: Resensitization of desensitized α7 nicotinic acetylcholine receptor, whole cell patch clamp; type: cell-based

COc1cc(OC)c(NC(=O)Nc2cc(C)on2)cc1Cl [Compound 2, N-(5-chloro-2,4-dimethoxyphenyl)-N′-(5-methylisoxazol-3-yl)urea]
inhibition of desensitization (desensitization kinetics of acetylcholine-induced ion currents) [1]: inhibition | inhibition of desensitization (desensitization kinetics of acetylcholine-induced ion currents) ([1]; listed as compound 2): significant inhibition or slowing of receptor desensitization | resensitization of the desensitized α7 nicotinic acetylcholine receptor (inward current evoked in the continued presence of agonist) [2]: resensitizes; also recorded: large persistent inward current that was readily reversed upon washout

Oc1ccc2[nH]ccc2c1 [5-hydroxyindole]
inhibition of desensitization (desensitization kinetics of acetylcholine-induced ion currents) [1]: does not alter the rate of receptor desensitization; also recorded: had no such effect; also recorded: did not affect the desensitization kinetics | resensitization of the desensitized α7 nicotinic acetylcholine receptor (inward current evoked in the continued presence of agonist) ([2]; rat hippocampal neurons, applied after 60 seconds of continuous exposure to agonist Compound 1 (3 μM), in its continued presence): does not resensitize; also recorded: did not resensitize; also recorded: no significant effect

Cl.O=C(N[C@H]1CN2CCC1CC2)c1ccc(Cl)cc1 [Compound 1, N-[(3R)-1-azabicyclo[2.2.2]oct-3-yl]-4-chlorobenzamide hydrochloride]
agonist-evoked inward current and receptor desensitization ([2]; rat hippocampal neurons, agonist applied continuously for 3 minutes, hydrochloride): desensitization; also recorded: initial inward current that rapidly declined back to baseline

CN1CCCC1c1cccnc1 (stereo not shown) [nicotine]
agonist-evoked inward current and receptor desensitization ([2]; nicotine as agonist, expected result ("should result")): initial inward current that rapidly declines back to baseline
